The values that follow come from patent publication US20140147856A1, “Intestinal Permeability Assay for Neurodegenerative Diseases” (Rush University Medical Center, priority 2012, published 2014).

The nature of this series: Oral sugar intestinal permeability assay (urinary sugar excretion by gas chromatography). It counts as in vivo, human. The conditions noted are these: oral sugar mixture with 1 gram sucralose after overnight fast, 24 h urine. An excerpt: In an example of a protocol used to validate the instant invention, patients with clinically diagnosed PD not yet requiring dopaminergic therapy were recruited under a clinical protocol (FIG. 1 and Table 1). […] Constipation was defined as fewer than 3 bowel movements per week or if the subject complained of constipation. Men and women who met United Kingdom Parkinson Disease Research Society brain bank criteria for PD, Hoehn & Yahr stage 1-2.5 were included. Subjects were excluded based on the following: atypical or secondary Parkinsonism, any known organic gastrointestinal disease, use of drugs affecting gastrointestinal motility, anti-inflammatory agents, and chronic diuretic use. Control subjects were of similar age and gender that had no GI or neurological symptoms or signs (determined by examination by a board certified neurologist with expertise in movement disorders) and were not taking regular medication or anti-inflammatory agents.
Subjects fasted overnight and subsequently ingested a sugar mixture containing 2 grams mannitol, 7.5 grams lactulose, 40 grams sucrose, and 1 gram sucralose at 6 AM, then collected 2 sequential 12-hour urine samples. Urine was analyzed for sugar content using gas chromatography (GC) techniques as described herein. […] The final residue is dissolved in 0.5 ml acetone and the sample is ready for analysis. […]

For the compound `OC[C@H]1O[C@H](O[C@]2(CCl)O[C@H](CCl)[C@@H](O)[C@@H]2O)[C@H](O)[C@@H](O)[C@H]1Cl` [sucralose], the “mean 24 h urinary sucralose (marker of total intestinal permeability)” value (PD subjects) was 1.12±0.1% of oral dose and the “mean 24 h urinary sucralose (marker of total intestinal permeability)” value (age matched controls) is recorded as 0.58±0.1% of oral dose.
